These results are taken from article PMC2720784 (Biochemistry, 2009).

Where a chain is given by its changes, count along the chain named.

The target in one experiment is T1, R343V hNCRD (Homo sapiens, UniProt P35247, R363V).
T1 sequence (P35247 223-375 R363V limits assumed): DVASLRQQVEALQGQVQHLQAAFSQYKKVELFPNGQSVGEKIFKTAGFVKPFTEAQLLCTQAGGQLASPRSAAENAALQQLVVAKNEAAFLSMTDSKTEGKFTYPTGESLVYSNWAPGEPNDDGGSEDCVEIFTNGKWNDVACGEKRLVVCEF
Nature of the experiment: Mannan competition assay, R343V. In kind it is binding. As to conditions: for change in affinity of R343V relative to wild-type: competition assays.

For the next experiment, the target named is T2, R343A hNCRD (Homo sapiens, UniProt P35247, R363A).
T2 sequence (P35247 223-375 R363A limits assumed): T1 sequence (P35247 223-375 R363V limits assumed) with V141A
Briefly: Mannan competition assay, R343A. The following applies: read-out: I50 for inhibition of binding to mannan, one experiment.

For experiment [1], the system named is Phil82 IAV. In kind it is cell-based, influenza A virus.
Experiment [2] has as its system Phil82 IAV. In kind it is cell-based, influenza A virus. As to conditions: n=5.
Experiment [3] has as its system Phil82 IAV. The experiment is classed as binding, influenza A virus.

`OC[C@H]1OC(O)[C@@H](O)[C@@H](O)[C@@H]1O` (stereo partly drawn) [D-mannose]: the “change in affinity of R343V relative to wild-type” value on R343V hNCRD is “no significant increase in affinity”. The same measure, in the same setting: the entry for `CO[C@H]1O[C@H](CO[C@H]2O[C@H](CO)[C@@H](O)[C@H](O)[C@@H]2O)[C@@H](O)[C@H](O[C@H]2O[C@H](CO)[C@@H](O)[C@H](O)[C@@H]2O)[C@@H]1O` [TM core, methyl 3,6-Di-O-(α-D-mannopyranosyl)-α-D-mannopyranoside] is “no significant increase in affinity”. `OC[C@H]1O[C@H](O[C@@H]2C(O)O[C@H](CO)[C@@H](O)[C@@H]2O)[C@@H](O)[C@@H](O)[C@@H]1O` (stereo partly drawn) [alpha1–2 DM, alpha1–2 linked dimannose]: at R343V hNCRD (R343V vs wild-type hNCRD), the “increase in affinity as compared to wild-type” value was 7 fold. For the same compound, the “change in affinity of R343V relative to wild-type” value on R343V hNCRD is listed as “greatly enhanced binding”. Also, the IC50 on R343V hNCRD (read-out: I50 for inhibition of binding to mannan, R343V, n=5) came out at 210 ± 60 µM; on R343A hNCRD, 362 µM. In the case of `OC[C@H]1O[C@H](O[C@H]2[C@H](O)[C@@H](CO)OC(O)[C@H]2O)[C@@H](O)[C@@H](O)[C@@H]1O` (stereo partly drawn) [α1–3 dimannose], the “change in affinity of R343V relative to wild-type” value at R343V hNCRD is recorded as “no significant increase in affinity”. On the same count and under the same terms, the entry for `OC[C@H]1O[C@H](OC[C@H]2OC(O)[C@@H](O)[C@@H](O)[C@@H]2O)[C@@H](O)[C@@H](O)[C@@H]1O` (stereo partly drawn) [α1–6 dimannose] is “no significant increase in affinity”.

Regarding “hNCRD Wild type: N-terminally tagged trimeric neck+carbohydrate recognition domain fusion protein of human SP-D, wild type”, the “viral neutralizing activity” value in the experiment with Phil82 IAV [1] is given as “lacked”. Besides, the “HA Inhibitory Concentration” value with Phil82 IAV [2] is >50 µg/mL. Besides, the “binding to IAV, solid phase binding assay” value in the experiment on Phil82 IAV [3] was “no measurable binding”.
